In ChEMBL document CHEMBL1123916, “Facile synthesis of 2-[(3-aminopropyl)thio]adenosine 5'-diphosphate: a key intermediate for the synthesis of molecular probes of adenosine 5'-diphosphate function” (J Med Chem, 1987):
Calls of active or inactive are those of the source.

What was measured:
Format in all cases: functional, organism-based
Homo sapiens [1] = species on record: Homo sapiens; experiment: Reversible aggregation effect at low concentration; Active
Homo sapiens [2] = species on record: Homo sapiens; experiment: Biphasic response at low concentration; Active
Homo sapiens [3] = species on record: Homo sapiens; experiment: Agonistic activity against platelet aggregation; Effective agonist; details: filed as agonist

Measured: Activity

Nc1ncnc2c1ncn2[C@@H]1O[C@H](COP(=O)(O)OP(=O)(O)O)[C@@H](O)[C@H]1O
active: Homo sapiens [1] | Homo sapiens [2] | Homo sapiens [3] Agonist
